# Patent US5610158A, “4-oxo- and 4H-imidazo(5,1-c)(1,4)benzoxazines useful as benzodiazepine receptor-binding agents” (The Upjohn Company, priority 1994, dated 1997)
# Target: benzodiazepine receptors
# Assay: displacement of radioactive labelled flunitrazepam from benzodiazepine receptors
# Type: binding
# Protocol: In the following Table, Ki values are shown for Examples 1-19 which include comparative compounds 1, 7, 9 and 11, which are not compounds of the subject invention but are structurally similar.
# The Ki value is determined from a concentration response curve obtained in the presence and absence of a fixed concentration of competitive […], flunitrazepam. […] The lower Ki value indicates a higher affinity for benzodiazepine.
row,SMILES,Ki [nM]
1,"c1ccc2c(c1)OCc1c(-c3noc(C4CC4)n3)ncn1-2 [Example 1, 3-(5-Cyclopropyl-1,2,4-oxadiazol-3-yl)-4H-imidazo(5,1-c)(1,4)benzoxazine, reference compound]",39.7
2,"CC(C)(C)OC(=O)Nc1ccc2c(c1)OCc1c(-c3noc(C4CC4)n3)ncn1-2 [Example 2, 7-(Amino(t-butoxycarbonyl))-3-(5-cyclopropyl-1,2,4-oxadiazol-3-yl)-4H-imidazo(5,1-c)(1,4)benzoxazine]",10000
3,"O=C(OC1Oc2ccccc2-n2cnc(-c3noc(C4CC4)n3)c21)c1ccccc1 (stereo not shown) [Example 3, 3-(5-Cyclopropyl-1,2,4-oxadiazol-3-yl)-4-(benzoyloxy)-4H-imidazo(5,1-c)(1,4)benzoxazine]",121
4,"OC1Oc2ccccc2-n2cnc(-c3noc(C4CC4)n3)c21 (stereo not shown) [Example 4, 3-(5-Cyclopropyl-1,2,4-oxadiazol-3-yl)-4-hydroxy-4H-imidazo(5,1-c)(1,4)benzoxazine]",118
5,"Nc1ccc2c(c1)OCc1c(-c3noc(C4CC4)n3)ncn1-2 [Example 5, 7-Amino-3-(5-cyclopropyl-1,2,4-oxadiazol-3-yl)-4H-imidazo(5,1-c)(1,4)benzoxazine]",65.4
6,"CC(C)(C)OC(=O)Nc1ccc2c(c1)OC(OC(=O)c1ccccc1)c1c(-c3noc(C4CC4)n3)ncn1-2 (stereo not shown) [Example 6, 7-(Amino(t-butoxycarbonyl))3-(5-cyclopropyl-1,2,4-oxadiazol-3-yl)-4-(benzoyloxy)-4H-imidazo(5,1-c)(1,4)benzoxazine]",10000
7,"CCOC(=O)c1ncn2c1COc1ccccc1-2 [Example 7, Ethyl 4H-imidazo(5,1-c)(1,4)benzoxazine-3-carboxylate, reference compound]",59.6
8,"O=C(Nc1ccc2c(c1)OCc1c(-c3noc(C4CC4)n3)ncn1-2)C(F)(F)F [Example 8, 7-(Amino(trifluoroacetyl))-3-(5-cyclopropyl-1,2,4-oxadiazol-3-yl)-4H-imidazo(5,1-c)(1,4)benzoxazine]",10000
9,"c1ccc2c(c1)OCc1c(-c3nc(C4CC4)no3)ncn1-2 [Example 9, 3-(3-Cyclopropyl-1,2,4-oxadiazol-5-yl)-4H-imidazo(5,1-c)(1,4)benzoxazine, reference compound]",72.6
10,"O=c1oc2ccccc2n2cnc(-c3noc(C4CC4)n3)c12 [Example 10, 3-(5-Cyclopropyl-1,2,4-oxadiazol-3-yl)-4-oxo-4H-imidazo(5,1-c)(1,4)benzoxazine]",656
11,"CC(C)(C)OC(=O)c1ncn2c1COc1ccccc1-2 [Example 11, Tert-butyl 4H-imidazo(5,1-c)(1,4)benzoxazine-3-carboxylate, reference compound]",69.9
12,"CC1Oc2ccccc2-n2cnc(-c3noc(C4CC4)n3)c21 (stereo not shown) [Example 12, 3-(5-Cyclopropyl-1,2,4-oxadiazol-3-yl)-4-methyl-4H-imidazo(5,1-c)(1,4)benzoxazine]",114
13,"Fc1ccc2c(c1)OCc1c(-c3noc(C4CC4)n3)ncn1-2 [Example 13, 3-(5-Cyclopropyl-1,2,4-oxadiazol-3-yl)-7-fluoro-4H-imidazo(5,1-c)(1,4)benzoxazine]",8.56
14,"CC1(C)Oc2ccccc2-n2cnc(-c3noc(C4CC4)n3)c21 [Example 14, 3-(5-Cyclopropyl-1,2,4-oxadiazol-3-yl)-4,4-dimethyl-4H-imidazo(5,1-c)(1,4)benzoxazine]",67.1
15,"CCOC(=O)c1ncn2c1COc1cc(F)ccc1-2 [Example 15, Ethyl 7-fluoro-4H-imidazo(5,1-c)(1,4)benzoxazine-3-carboxylate]",4.59
16,"CC(C)(C)OC(=O)c1ncn2c1COc1cc(F)ccc1-2 [Example 16, Tert-butyl 7-fluoro-4H-imidazo(5,1-c)(1,4)benzoxazine-3-carboxylate]",32.4
17,"CC(C)(C)c1nc(-c2ncn3c2COc2cc(F)ccc2-3)no1 [Example 17, 3-(5-Tert-butyl-1,2,4-oxadiazol-3-yl)-7-fluoro-4H-imidazo(5,1-c)(1,4)benzoxazine]",443
18,"CN(C)c1noc(-c2ncn3c2COc2cc(F)ccc2-3)n1 [Example 18, 3-(3-dimethylamino-1,2,4-oxadiazol-5-yl)-7-fluoro-4H-imidazo(5,1-c)(1,4)benzoxazine]",154
19,"CC(C)(C)OC(=O)c1ncn2c1COc1c-2ccc(F)c1C#N [Example 19, Tert-butyl 6-cyano-7-fluoro-4H-imidazo(5,1-c)(1,4)benzoxazine-3-carboxylate]",4.6
